From patent publication US20220010352A1, “ANIMAL MODELS AND SCREENING METHODS FOR INTRAOCULAR DISEASE OR DISORDER” (ZHUHAI QlWEl BIO-TECHNOLOGY LTD., priority 2018, published 2022)
Entries after “also recorded” stand apart in the source; their conditions may differ.

How the values were obtained:
Bacillus megaterium [1] = experiment: Bacillus megaterium subretinal inoculation model, bacteria-induced drusenoid pathology in retinal tissues; format: in vivo, Macaca fascicularis; details: intravitreous, 0.5 mg, one injection on Day 2 post bacterial inoculation; macaque; compared to control; FIG. 8
Procedure: The macaques were sedated by intramuscular injection of a mixture of tiletamine hydrochloride (2.5 mg/kg) and xolazepam hydrochloride (2.5 mg/kg). After instilling topical anesthesia (0.5% proparacaine hydrochloride), the eyes were immediately visualized in vivo using a light microscope. The pupils were then dilated with 0.5% tropicamide and 0.5% phenylephrine to obtain the fundus photographs. […] Under microscopic monitoring, 20 μl of PBS (with or without bacteria) was injected into the subretinal space between photo receptors and RPE (retinal pigment epithelium), using a NanoFil Syringe Nanofil-100 for Microinjection (World Precision Instruments, USA). All procedures were done using sterile instruments. The macaque was euthanized 47 days post inoculation and the eyeball was enucleated for histological analyses. The eyeballs were fixed in 4% paraformaldehyde for 48 h and then embedded in paraffin. Sections were cut on a microtome at 6 μm and stained with H&E.
We examined whether subretinal inoculation of AH and VH cultures, as well as the cultured single species of B. megaterium led to AMD like pathology in macaque. About 20 CFU of bacteria (in 20 μl PBS) from AH, VH, and B. megaterium cultures were injected subretinally and PBS was used as a control (illustrated in FIG. 6). […]

Bacillus megaterium [2] = experiment: antibiotic sensitivity screening test in petri dishes (minimum inhibitory concentration method); format: cell-based; details: MIC method, 10^-1 to 10^-5 mg/mL in medium, FIG. 1
Procedure: The bacterial culture medium (HuanKai Microbial, Guangzhou, China) containing peptone 5 g, beef extract 3 g, NaCl 5 g, agar 15 g, and MnSO4 5 mg in 1 L ddH2O (pH=7.2) was prepared in conical flask (Drtech, Guangzhou, China) and was sterilized in the autoclave (HIRAYAMA, HEV-50, Japan) at 121° C. for 30 min. Bacillus megaterium (total 1*10^7 per culture) was cultured in the incubator (HettCube 200, Germany) at 37° C. for 24 h.
To test whether antibiotics can control the growth of Bacillus megaterium in vitro and in vivo, we first carried out an antibiotic sensitivity screening test in petri dishes which were made in example 1. The sensitivity of Bacillus megaterium to several major antimicrobial agents including ampicillin, vancomycin, neomycin, metronidazole and tetracycline were examined using the minimum inhibitory concentration (MIC) method. Ampicillin, vancomycin, neomycin, metronidazole, and tetracycline (purchased from Sigma, USA) at various concentrations (10^−1, 10^−2, 10^−3, 10^−4, 10^−5 mg/mL) were added into cooled medium.

[3] = ocular complications after intraocular administration in monkey; format: in vivo; details: data not shown
Description: Next, we used the Bacillus megaterium subretinal inoculation model to test whether antibiotics might be able to change the bacteria-induced drusenoid pathology in monkey retinal tissues.

CN[C@H](CC(C)C)C(=O)N[C@H]1C(=O)N[C@@H](CC(N)=O)C(=O)N[C@H]2C(=O)N[C@H]3C(=O)N[C@H](C(=O)N[C@H](C(=O)O)c4cc(O)cc(O)c4-c4cc3ccc4O)[C@H](O)c3ccc(c(Cl)c3)Oc3cc2cc(c3O[C@@H]2O[C@H](CO)[C@@H](O)[C@H](O)[C@H]2O[C@H]2C[C@](C)(N)[C@H](O)[C@H](C)O2)Oc2ccc(cc2Cl)[C@H]1O [vancomycin]
size of drusenoid lesion in retinal tissue (Bacillus megaterium [1]): reduction in the size of drusenoid lesion

Cc1ncc([N+](=O)[O-])n1CCO [metronidazole]
effectiveness in controlling the growth of Bacillus megaterium, fold less effective (relative to neomycin) (Bacillus megaterium [2]): 10000 fold

neomycin
ocular complications [3]: significant ocular complications including ophthalmatrophia | sensitivity of Bacillus megaterium to antimicrobial agent / in vitro activity controlling the expansion of Bacillus megaterium (Bacillus megaterium [2]; 37° C. 24 h): most sensitive; also recorded: best in vitro activity
